Laboratory results taken from PubChem BioAssay AID1421 (Emory University Molecular Libraries Screening Center, 2008).
The source made the active and inactive calls. How the calls were made is not given here.

Each molecule was assayed against Prostaglandin E2 receptor EP2 subtype (Homo sapiens) (UniProt P43116) (assay: compounds shifting PGE2 potency at EP2 – cell-based, human EP2, PGE2 EC50 shift, dose response (AID 1421)). Settings: EP2-expressing cells, PGE2 EC50 shift by compound.
Chain of Prostaglandin E2 receptor EP2 subtype (Homo sapiens) (P43116 whole entry, looked up): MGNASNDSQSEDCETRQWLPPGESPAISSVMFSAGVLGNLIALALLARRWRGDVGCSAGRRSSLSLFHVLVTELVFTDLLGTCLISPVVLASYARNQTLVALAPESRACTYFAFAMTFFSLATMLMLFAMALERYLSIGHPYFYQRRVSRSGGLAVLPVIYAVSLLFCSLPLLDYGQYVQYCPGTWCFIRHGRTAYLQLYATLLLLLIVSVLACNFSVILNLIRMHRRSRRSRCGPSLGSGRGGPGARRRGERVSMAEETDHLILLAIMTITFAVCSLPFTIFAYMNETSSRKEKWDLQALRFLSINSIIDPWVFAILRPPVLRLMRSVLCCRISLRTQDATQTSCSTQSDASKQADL

SMILES | outcome
CCCCCc1ccc(-c2ccc(=O)[nH]n2)cc1 | active
CCCc1cc(C(=O)OC)c(NC(=O)c2cc(C)on2)s1 | active
CCCCn1c(=O)c2ccccc2c2ccccc2c1=O | active
Cc1noc(C)c1CSc1nc2ccccc2c(=O)n1-c1ccccc1 | active
CCOCC(=O)Nc1sc2c(c1C(=O)OCC)CCCC2 | active
COc1cc2c(cc1OC)-c1cc(N3CCCc4ccccc43)nc(=O)n1CC2 | active
Cc1ccc(CSc2ncnc3c2cnn3Cc2ccccc2)cc1C | active
Cc1cccc(C)c1OC(=O)C(c1ccccc1)c1ccccc1 | active
O=C(Nc1ccccc1N1CCCCC1)c1ccccc1F | active
N#Cc1cn(-c2ccccc2)nc1-c1cc2ccccc2oc1=O | active
Cc1ccccc1CN(C)CC(=O)Nc1ccccc1Oc1ccccc1 | active

Same assay, conditions: EP2-expressing cells, PGE2 EC50 shift by compound; measured here: PGE2 EC50 at 6.7 uM compound

SMILES | PGE2 EC50 with compound
COc1ccc(-n2c(CCc3ccccc3)nnc2SCC(=O)c2ccccc2)cc1 | 1.57 nM
CCOC(=O)CN(C(=O)CSc1nnc(Cc2ccccc2)n1-c1ccc(C)cc1)c1ccccc1 | 1.48 nM
CCCn1c(-c2cccs2)nc2c1c(=O)[nH]c(=O)n2Cc1ccccc1 | 2.78 nM
N/C(CSc1nc(-c2ccccc2)c(-c2ccccc2)o1)=N\O | 1.14 nM
CCCCCc1ccc(-c2ccc(=O)[nH]n2)cc1 | 1.44 nM
CC1(C)Oc2ccc(C(=O)N3CCOCC3)cc2N(CC(=O)N2CCOCC2)C1=O | 1.69 nM
CCCCn1c(=O)c(C(=O)NCc2ccco2)c(O)c2ccccc21 | 2.62 nM
COc1ccc(C2=Nn3c(nnc3-c3ccccc3)SC2)cc1OC | 2.63 nM
CCCc1cc(C(=O)OC)c(NC(=O)c2cc(C)on2)s1 | 0.7 nM
Cc1ccc2c(c1)N(S(=O)(=O)c1ccc(F)cc1)C(C(C)(C)C)CO2 (stereo not given) | 1.11 nM
NC(=O)c1sc2nc(N3CCCCC3)c3c(c2c1N)CCCC3 | 2.62 nM
COc1cccc2[nH]c3c(N4CC(C)CC(C)C4)ncnc3c12 (stereo not given) | 1.15 nM
CCCCn1c(=O)c2ccccc2c2ccccc2c1=O | 0.96 nM
O=S(=O)(C=C(c1ccccc1)c1ccccc1)c1ccccc1 | 2.7 nM
Cc1cc(-c2sccc2C)nc(-n2cccc2)n1 | 2.5 nM
CCn1c(=NC(=O)c2ccc(S(=O)(=O)N(C)C)cc2)sc2cccc(OC)c21 | 1.17 nM
Cc1noc(C)c1CSc1nc2ccccc2c(=O)n1-c1ccccc1 | 1.3 nM
Oc1c(Cl)cc(Cl)cc1Sc1cc(Cl)cc(Cl)c1O | 0.58 nM
CCOC(=O)c1c(NC(=O)c2cccs2)sc2c1CCCC2 | 0.81 nM
CCOc1ccc2cc(C#N)c(SCC(=O)NC(C)CC)nc2c1 (stereo not given) | 1.36 nM
COc1ccc(-c2c3c([nH]c(=S)c2C#N)CCC3)cc1 | 2.78 nM
O=C(COC(=O)c1ccc(S(=O)(=O)N2CCCC2)cc1)Nc1ccc(F)cc1F | 1.73 nM
Cc1noc(C)c1CSc1ncnc2sc(C)c(C)c12 | 1.38 nM
CCOCC(=O)Nc1sc2c(c1C(=O)OCC)CCCC2 | 1.18 nM
CN(Cc1cccs1)c1nc(-c2cccnc2)nc2ccccc12 | 1.07 nM
CCOC(=O)c1c(NC(=O)CSc2nnc(C)s2)sc2c1CCC(C)C2 (stereo not given) | 0.95 nM

SMILES | PGE2 EC50 with compound
Cc1noc(C)c1CSc1nc2ccccc2c(=O)n1-c1ccc(F)cc1F | 1.09 nM
Cn1c(=O)c2c(nc(CN3CCN(c4ccccc4)CC3)n2Cc2ccccc2Cl)n(C)c1=O | 2.59 nM
O=C(CO/N=C/c1ccccc1)N1c2ccccc2Oc2ccccc21 | 1.45 nM
COc1cc2c(cc1OC)-c1cc(N3CCCc4ccccc43)nc(=O)n1CC2 | 1.98 nM
Cc1ccccc1-n1c(Cn2c(=O)sc3ccccc32)nnc1SCC(=O)N1CCCC1 | 1.05 nM
Cc1cc(SCC(=O)Nc2cccnc2Cl)nc2ccccc12 | 0.87 nM
CCOc1nc(C)cc(C)c1S(=O)(=O)c1ccc(Cl)cc1 | 1.56 nM
COc1cccc(OCC(=O)Nc2ccccc2-c2ccccc2)c1 | 1.17 nM
Cc1ccc(CSc2ncnc3c2cnn3Cc2ccccc2)cc1C | 1.08 nM
N#CCCSc1ncnc2c1oc1ccccc12 | 1.52 nM
COc1ccccc1/C=C/C(=O)OCC(=O)Nc1ccccc1Sc1ccccc1 | 0.76 nM
CC(=O)c1ccc2c(c1)c1ccccc1n2CC(C)C | 1.35 nM
CCOc1ccccc1Cn1c(=O)sc2ccccc21 | 2.65 nM
C/C=C(\C)c1nnc(NC(=O)OCC)s1 | 2.65 nM
COc1ccc(C2=Nn3c(nnc3-c3ccccc3OC)SC2)cc1OC | 0.93 nM
CC(=O)N1N=C2/C(=C/c3ccccc3)CCCC2C1c1ccccc1 (stereo not given) | 1.25 nM
CCOC(=O)c1c(NC(=O)c2cccnc2)sc(C)c1C | 1.25 nM
Cc1cccc(-c2nc(=S)c3c(n2Cc2ccco2)CCCC3)c1 | 0.88 nM
Cc1cccc(C)c1OC(=O)C(c1ccccc1)c1ccccc1 | 2.47 nM
COc1ccc(C)c(Cn2c(-c3nonc3N)nc3ccccc32)c1 | 0.86 nM
C[C@H](N)[C@H](O)c1ccc(O)c(O)c1 | 1.32 nM
COc1cccc(C2=NN(C(=O)c3cccs3)C(O)(C(F)(F)F)C2)c1 (stereo not given) | 1.44 nM
C=C(C)Cn1c(C)cc(C)c(S(=O)(=O)c2cccc(C)c2)c1=O | 1.28 nM
C=CCc1cccc(/C=N/c2nc3ccccc3n2CC)c1O | 0.63 nM
CC(C)c1nc(SCc2c(F)cccc2Cl)c2c(=O)n(C)c(=O)n(C)c2n1 | 0.55 nM
O=S(=O)(Nc1ccccc1N1CCCCC1)c1ccc(Cl)s1 | 1.49 nM

SMILES | PGE2 EC50 with compound
COc1ccccc1/C=N/N(C(C)=O)c1nc(-c2ccc(F)cc2)cs1 | 1.1 nM
COc1c(O)ccc(/C=C(\C#N)c2nc3ccccc3[nH]2)c1[N+](=O)[O-] | 1.1 nM
COc1ccc(CSC2=C(C#N)C(=O)NC3(CCCCC3)S2)cc1 | 1.3 nM
S=C(Nc1ccccc1Cl)N(Cc1ccccc1)Cc1ccccn1 | 1.62 nM
Cc1ccc(OCC(=O)NNC(=O)C2CCN(c3ncccn3)CC2)cc1 | 0.81 nM
Cc1ccc(-n2c(=S)[nH]c3c(oc4ccccc43)c2=O)cc1C | 1.76 nM
CCOC(=O)/C(N=Nc1c(Br)cc(Br)cc1Br)=C(\C)O | 0.84 nM
O=C1C2C(c3ccccc3)C=CC(c3ccccc3)C2C(=O)N1c1ccncc1 (stereo not given) | 0.65 nM
S=c1[nH]nc(-c2ccco2)n1/N=C/c1ccc(Cl)cc1Cl | 1.06 nM
Cc1cc(Nc2ccc(Br)cc2)n2nc(C)nc2n1 | 1.06 nM
CCCn1c(C)nc2c(c1=O)c1nc3ccccc3nc1n2CCC1=CCCCC1 | 1.42 nM
COc1cnc(SCc2c(Cl)cccc2Cl)nc1Cl | 1.76 nM
COC(=O)c1c(NC(=O)c2ccccc2N(C)S(=O)(=O)c2ccccc2)sc2c1CCCC2 | 1.49 nM
Cc1ccc(Nc2nc(CSc3nnc(-c4ccccc4C)n3C)cs2)cc1 | 1.35 nM
O=C(Nc1ccccc1N1CCCCC1)c1ccccc1F | 0.61 nM
Cn1c(=O)c2c(ncn2CCSS(=O)(=O)O)n(C)c1=O | 0.97 nM
COC(=O)CSc1nc(-c2ccccc2)nc2ccccc12 | 1.02 nM
Cc1ccc(-c2nn(-c3ccccc3)cc2CN(Cc2ccccc2)C(=O)c2ccco2)o1 | 0.7 nM
O=S(=O)(c1ccccc1)c1nc(-c2ccco2)oc1N1CCCCCC1 | 1.21 nM
Cc1ccc(Cl)cc1NC(=S)N(Cc1ccco1)C(C)c1cccs1 (stereo not given) | 1.51 nM
N#Cc1cn(-c2ccccc2)nc1-c1cc2ccccc2oc1=O | 0.99 nM
COc1cc(O)c2c(=O)cc(C)oc2c1CC=C(C)C | 2.64 nM
CCn1c2ccccc2c2cc(/C=N/n3c(C)nnc3C)ccc21 | 1.15 nM
Cc1cc(Oc2ccccc2)nc(NCc2ccccc2)n1 | 0.63 nM
Cc1cccc(-n2c(CCc3ccccc3)nnc2SCC(=O)c2ccccc2)c1 | 1.16 nM
CCN(CC)S(=O)(=O)c1c(OC)cc(C)c(Cl)c1C | 2.56 nM

SMILES | PGE2 EC50 with compound
COc1ccccc1-c1nnc2sc(-c3cc4ccccc4o3)nn12 | 6.03 nM
O=C(c1ccccc1)N1N=C(c2ccccc2)CC1c1ccccc1O (stereo not given) | 1.14 nM
Cc1noc(C)c1CSc1nc2ccccc2c(=O)n1-c1ccc(Cl)cc1 | 0.83 nM
O=C1CCCc2ccccc2N1Cc1cccc(Cl)c1 | 2.62 nM
CCCCOc1ccc(-c2c(C(=O)Nc3ccccc3)c(C)[nH]c(=S)c2C#N)cc1 | 2.8 nM
Cc1ccccc1CN(C)CC(=O)Nc1ccccc1Oc1ccccc1 | 1.12 nM
O=C(CN1CCN(Cc2ccccc2)CC1)Nc1ccccc1-c1ccccc1 | 2.97 nM
CCCCC(=O)Nc1sc2c(c1C(=O)OCC)CCC(C=O)=C2Cl | 0.91 nM
O=C(O)CCCCCCCCCCCc1ccccc1 | 0.88 nM
CCOC(=O)C1=C(C)OC(N)=C(C#N)C1c1cc(C)sc1C (stereo not given) | 1.3 nM
COc1ccc(-c2cc(C(F)(F)F)n3nc(C(=O)N(C)Cc4ccccc4)cc3n2)cc1OC | 1.03 nM
COC(=O)c1sc2[nH]c(=S)n(N)c(=O)c2c1C | 1.06 nM
COc1ccc(N2CCN(c3nc4c(c(=O)[nH]c(=O)n4C)n3Cc3cccc(C)c3)CC2)cc1 | 0.7 nM
COc1ccc(OC(=O)c2cccc([N+](=O)[O-])c2)c(C(=O)/C=C/c2cccs2)c1 | 2.52 nM
CCOc1ccccc1NC(=O)c1ccccc1-c1nc(-c2ccccc2)no1 | 1.14 nM
O=c1[nH]c2ccc(Br)cc2c(-c2ccccc2)c1N1CCOCC1 | 1.07 nM
Cc1ccc(S(=O)(=O)n2c3ccc(Cl)cc3c3nc(C)sc32)cc1 | 0.44 nM
CCCc1cc(-c2n[nH]c(=S)n2Cc2ccccc2)cs1 | 1.36 nM
CC(/C=C1\SC(=S)N(C(C(=O)O)C(C)C)C1=O)=C\c1ccccc1 (stereo not given) | 0.86 nM
CSc1nc(Sc2ccccc2Cl)c2ccccc2n1 | 0.7 nM
Cc1cc(C)c2c(n1)sc1c(=O)n(Cc3ccccc3Cl)nnc12 | 0.92 nM
CSc1ccccc1NC(=O)COc1ccc(Cl)cc1C | 1.06 nM
O=C(O)NCc1ccccc1 (tested in a mixture with another compound) | 1.38 nM
C=CCn1c(CNC(=O)c2cccs2)nnc1SCC(=O)c1ccc(Br)cc1 | 1.83 nM
COc1cccc(N=c2oc3c(C)ncc(CO)c3cc2C(=O)Nc2ccccc2OC)c1 | 1.48 nM
CC(C)Cc1nc(SCc2cccnc2)c2c(=O)n(C)c(=O)n(C)c2n1 | 0.67 nM
